Reference: ChEMBL document CHEMBL4177639, “Acacetin inhibits neuronal cell death induced by 6-hydroxydopamine in cellular Parkinson's disease model” (Bioorg Med Chem Lett, 2017)
Activity calls are given as the source filed them. The calls are words filed in the database; no cut-off is given here.

Experiments:
SH-SY5Y [1] = assay: Cytotoxicity against human SH-SY5Y cells assessed as effect on cell viability at 0.5 to 10 uM after 24 hrs by MTT assay; type: cell-based
SH-SY5Y [2] = assay: Cytotoxicity against human SH-SY5Y cells assessed as reduction in LDH release at 0.5 to 10 uM after 24 hrs by spectrophotometric method; type: cell-based
SH-SY5Y [3] = assay: Neuroprotective activity against 6-OHDA induced apoptosis in human SH-SY5Y cells assessed as increase in Bcl-2 expression pretreated for 1 hr followed by 6-OHDA addition after 6 to 24 hrs by Western blot analysis; type: functional, cell-based
SH-SY5Y [4] = assay: Neuroprotective activity against 6-OHDA induced toxicity in human SH-SY5Y cells assessed as reduction in LDH release pretreated for 30 mins followed by 6-OHDA addition after 24 hrs by spectrophotometric method; type: functional, cell-based
[5] = molecular target: MAP kinase p38 (Homo sapiens) (UniProt O15264+Q15759+Q16539+P53778); conditions: SH-SY5Y, 2.5 to 10 uM
Description: Inhibition of 6-OHDA induced p38 phosphorylation in human SH-SY5Y cells at 2.5 to 10 uM pretreated for 1 hr followed by 6-OHDA addition after 1 hr by Western blot analysis

SH-SY5Y [6] = assay: Neuroprotective activity against 6-OHDA induced toxicity in human SH-SY5Y cells assessed as reduction in cell shrinkage at 2.5 to 10 uM pretreated for 1 hr followed by 6-OHDA addition after 24 hrs by Hoechst 33258/propidium iodide staining based fluorescence microscopic analysis; type: functional
SH-SY5Y [7] = assay: Neuroprotective activity against 6-OHDA induced toxicity in human SH-SY5Y cells assessed as reduction in cell viability pretreated for 30 mins followed by 6-OHDA addition after 24 hrs by MTT assay; type: functional, cell-based
SH-SY5Y [8] = assay: Neuroprotective activity against 6-OHDA induced apoptosis in human SH-SY5Y cells assessed as reduction in cleaved PARP level at 2.5 to 10 uM pretreated for 1 hr followed by 6-OHDA addition after 6 to 24 hrs by Western blot analysis; type: functional, cell-based
SH-SY5Y [9] = assay: Neuroprotective activity against 6-OHDA induced toxicity in human SH-SY5Y cells assessed as reduction in nuclear fragmentation at 2.5 to 10 uM pretreated for 1 hr followed by 6-OHDA addition after 24 hrs by Hoechst 33258/propidium iodide staining based fluorescence microscopic analysis; type: functional, cell-based
[10] = molecular target: c-Jun N-terminal kinase, JNK (Homo sapiens) (UniProt P45983+P53779+P45984); assay: Inhibition of 6-OHDA induced JNK phosphorylation in human SH-SY5Y cells at 2.5 to 10 uM pretreated for 1 hr followed by 6-OHDA addition after 1 hr by Western blot analysis; type: cell-based
[11] = molecular target: Mitogen-activated protein kinase; ERK1/ERK2 (Homo sapiens) (UniProt P27361+P28482); assay: Inhibition of 6-OHDA induced ERK1/2 phosphorylation in human SH-SY5Y cells at 2.5 to 10 uM pretreated for 1 hr followed by 6-OHDA addition after 1 hr by Western blot analysis; type: cell-based
SH-SY5Y [12] = assay: Neuroprotective activity against 6-OHDA induced toxicity in human SH-SY5Y cells assessed as reduction in mitochondrial membrane potential loss at 1 to 10 uM pretreated for 1 hr followed by 6-OHDA addition after 1 to 6 hrs by rhodamine123 dye based fluorescence microscopic analysis; type: functional, cell-based
SH-SY5Y [13] = assay: Neuroprotective activity against 6-OHDA induced toxicity in human SH-SY5Y cells assessed as reduction in nuclear necrosis at 2.5 to 10 uM pretreated for 1 hr followed by 6-OHDA addition after 24 hrs by Hoechst 33258/propidium iodide staining based fluorescence microscopic analysis; type: functional, cell-based
SH-SY5Y [14] = assay: Neuroprotective activity against 6-OHDA induced apoptosis in human SH-SY5Y cells assessed as reduction in cytochrome-c level pretreated for 1 hr followed by 6-OHDA addition after 6 to 24 hrs by Western blot analysis; type: functional, cell-based
SH-SY5Y [15] = assay: Neuroprotective activity against 6-OHDA induced toxicity in human SH-SY5Y cells assessed as reduction in intracellular ROS accumulation at 1 to 10 uM pretreated for 1 hr followed by 6-OHDA addition after 1 to 6 hrs by DCFH-DA dye based fluorescence spectrophotometric method; type: functional, cell-based
[16] = molecular target: Glycogen synthase kinase-3 beta (Homo sapiens) (UniProt P49841); assay: Inhibition of 6-OHDA induced GSK3beta phosphorylation in human SH-SY5Y cells at 2.5 to 10 uM pretreated for 1 hr followed by 6-OHDA addition after 1 hr by Western blot analysis; type: cell-based
SH-SY5Y [17] = assay: Neuroprotective activity against 6-OHDA induced apoptosis in human SH-SY5Y cells assessed as reduction in cleaved caspase-9 level at 2.5 to 10 uM pretreated for 1 hr followed by 6-OHDA addition after 6 to 24 hrs by Western blot analysis; type: functional, cell-based
SH-SY5Y [18] = assay: Neuroprotective activity against 6-OHDA induced apoptosis in human SH-SY5Y cells assessed as reduction in cleaved caspase-3 level at 2.5 to 10 uM pretreated for 1 hr followed by 6-OHDA addition after 6 to 24 hrs by Western blot analysis; type: functional, cell-based
SH-SY5Y [19] = assay: Neuroprotective activity against 6-OHDA induced apoptosis in human SH-SY5Y cells assessed as reduction in Bax expression pretreated for 1 hr followed by 6-OHDA addition after 6 to 24 hrs by Western blot analysis; type: functional, cell-based
[20] = molecular target: RAC-alpha serine/threonine-protein kinase (Homo sapiens) (UniProt P31749); assay: Inhibition of 6-OHDA induced AKT phosphorylation in human SH-SY5Y cells at 2.5 to 10 uM pretreated for 1 hr followed by 6-OHDA addition after 1 hr by Western blot analysis; type: cell-based
SH-SY5Y [21] = assay: Neuroprotective activity against 6-OHDA induced toxicity in human SH-SY5Y cells assessed as reduction in nuclear condensation at 2.5 to 10 uM pretreated for 1 hr followed by 6-OHDA addition after 24 hrs by Hoechst 33258/propidium iodide staining based fluorescence microscopic analysis; type: functional, cell-based

Sequence of Mitogen-activated protein kinase; ERK1/ERK2 (Homo sapiens) (P27361 whole entry, looked up): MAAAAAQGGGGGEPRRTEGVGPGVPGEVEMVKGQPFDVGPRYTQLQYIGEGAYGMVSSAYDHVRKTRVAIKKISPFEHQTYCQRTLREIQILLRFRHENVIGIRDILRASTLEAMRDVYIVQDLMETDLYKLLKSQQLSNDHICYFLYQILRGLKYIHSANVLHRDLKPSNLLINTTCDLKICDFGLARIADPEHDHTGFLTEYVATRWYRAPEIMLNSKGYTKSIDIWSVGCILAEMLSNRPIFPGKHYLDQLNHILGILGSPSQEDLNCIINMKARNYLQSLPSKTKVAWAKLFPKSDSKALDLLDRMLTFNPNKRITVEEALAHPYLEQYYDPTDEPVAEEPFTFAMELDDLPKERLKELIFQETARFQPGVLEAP
Sequence of Mitogen-activated protein kinase; ERK1/ERK2 (Homo sapiens) (P28482 whole entry, looked up): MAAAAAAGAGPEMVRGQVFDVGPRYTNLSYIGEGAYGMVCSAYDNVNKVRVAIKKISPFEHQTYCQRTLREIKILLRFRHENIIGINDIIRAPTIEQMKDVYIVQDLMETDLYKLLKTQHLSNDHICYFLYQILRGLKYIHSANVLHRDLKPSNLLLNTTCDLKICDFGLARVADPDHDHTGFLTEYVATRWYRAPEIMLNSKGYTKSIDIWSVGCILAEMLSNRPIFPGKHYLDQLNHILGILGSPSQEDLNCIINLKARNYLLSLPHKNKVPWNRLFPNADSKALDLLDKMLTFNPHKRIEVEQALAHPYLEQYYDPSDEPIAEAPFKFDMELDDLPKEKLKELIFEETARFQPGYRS
Sequence of Glycogen synthase kinase-3 beta (Homo sapiens) (P49841 whole entry, looked up): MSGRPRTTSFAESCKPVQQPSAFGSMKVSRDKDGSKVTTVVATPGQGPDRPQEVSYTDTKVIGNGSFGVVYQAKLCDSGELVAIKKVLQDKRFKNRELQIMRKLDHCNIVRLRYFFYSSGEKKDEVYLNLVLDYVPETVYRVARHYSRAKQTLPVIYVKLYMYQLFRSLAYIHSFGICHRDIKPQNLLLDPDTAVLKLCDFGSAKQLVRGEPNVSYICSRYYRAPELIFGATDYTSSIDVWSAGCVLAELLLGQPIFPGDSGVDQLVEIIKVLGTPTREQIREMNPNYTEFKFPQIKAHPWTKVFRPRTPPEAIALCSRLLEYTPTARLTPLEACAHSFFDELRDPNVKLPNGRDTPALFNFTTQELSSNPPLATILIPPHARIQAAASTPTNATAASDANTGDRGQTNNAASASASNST
Sequence of RAC-alpha serine/threonine-protein kinase (Homo sapiens) (P31749 whole entry): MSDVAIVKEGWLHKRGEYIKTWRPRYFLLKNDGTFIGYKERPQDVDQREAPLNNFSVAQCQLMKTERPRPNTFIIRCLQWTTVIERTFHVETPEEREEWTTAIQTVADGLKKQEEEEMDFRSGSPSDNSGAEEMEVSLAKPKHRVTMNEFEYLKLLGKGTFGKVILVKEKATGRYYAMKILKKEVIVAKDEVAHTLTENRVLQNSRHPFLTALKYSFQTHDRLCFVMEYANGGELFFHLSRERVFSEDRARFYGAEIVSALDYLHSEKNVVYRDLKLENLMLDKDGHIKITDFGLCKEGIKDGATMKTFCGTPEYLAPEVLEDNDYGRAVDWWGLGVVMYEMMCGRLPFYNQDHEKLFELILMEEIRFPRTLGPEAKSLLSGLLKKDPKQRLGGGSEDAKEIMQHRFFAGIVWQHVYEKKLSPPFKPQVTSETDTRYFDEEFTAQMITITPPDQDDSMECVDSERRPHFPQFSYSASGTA

inhibition [5]: Active
inhibition [10]: Active
inhibition [11]: inactive
inhibition [16]: Active
inhibition [20]: Active
SMILES: COc1ccc(-c2cc(=O)c3c(O)cc(O)cc3o2)cc1 [ACACETIN]
Activity (SH-SY5Y [1]): Non-Toxic
Activity (SH-SY5Y [2]): Non-Toxic
Activity (SH-SY5Y [3]): Dose-dependent effect
Activity (SH-SY5Y [4]): Dose-dependent effect
Activity (SH-SY5Y [6]): Active
Activity (SH-SY5Y [7]): Dose-dependent effect
Activity (SH-SY5Y [8]): Active
Activity (SH-SY5Y [9]): Active
Activity (SH-SY5Y [12]): Active
Activity (SH-SY5Y [13]): Active
Activity (SH-SY5Y [14]): Dose-dependent effect
Activity (SH-SY5Y [15]): Active
Activity (SH-SY5Y [17]): Active
Activity (SH-SY5Y [18]): Active
Activity (SH-SY5Y [19]): Dose-dependent effect
Activity (SH-SY5Y [21]): Active
